Laboratory results reported in patent US6288073A, “Acronycine derivatives, preparation method and pharmaceutical compositions” (Adir et Compagnie, priority 1997, dated 2001).

Assays:
[1] = system: Line P 388 (murine leukaemia); test: Anti-tumour activity on line P 388 in vivo; design: species or system mice; settings: for % T/C: P 388 inoculated i.p. into female B6D2F1 mice, product i.p. on day 1 at the optimum dose; for Anti-tumour activity on line P 388 (in words): P 388 model in B6D2F1 mice, i.p., d1
Procedure: Line P 388 (murine leukaemia) was supplied by the National Cancer Institute (Frederick, USA). The tumour cells (10^6 cells) were inoculated on day 0 into the peritoneal cavity of female B6D2F1 mice (Iffa Credo, France). Six mice weighing from 18 to 20 g were used for each experimental group. The products were administered by the intraperitoneal route on day 1.
The anti-tumour activity is expressed as % TIC: [formula]

[2] = system: Murine leukaemia L1210; test: Cytotoxicity for L1210 cells in culture (Microculture Tetrazolium Assay); type: cell-based; settings: Mus musculus, exposure 48 hours (4 periods of cell doubling), viable cells by Microculture Tetrazolium Assay
Procedure: Murine leukaemia L1210 was used in vitro. The cells are cultured in RPMI 1640 complete culture medium containing 10% foetal calf serum, 2 mM giutamine, 50 units/ml of penicillin, 50 μg/ml of streptomycin and 10 mM Hepes, pH: 7.4. The cells are distributed on microplates and exposed to the cytotoxic compounds for 4 periods of cell doubling, i.e. 48 hours. The number of viable cells is then quantified by means of a colorimetric assay, the Microculture Tetrazolium Assay (J. Carmichael et al., Cancer Res., 47, 936-942, (1987)). The results are expressed as IC50, the concentration of cytotoxic agent which inhibits the proliferation of the treated cells by 50%.

[3] = system: Human Colon Carcinoma HT29; test: Anti-tumour activity on human colon carcinoma HT29 grafted onto nude mice; type: in vivo, nude mice (human HT29 xenograft)
Text: Line HT29 was supplied by the ATCC (American Type Culture Collection, Rockville, USA). The tumour cells were inoculated into female nude Swiss mice (10^7 cells per animal) by the subcutaneous route. The tumours were then removed and cut into fragments, which were grafted onto nude mice by the subcutaneous route. Once the tumour volume had reached from 50 to 100 mm^3, the mice were distributed into experimental groups containing 8 animals (control group) or 6 animals (treated groups) (day 0). The products were administered by the i.v. route once per week for 3 weeks. The tumours were measured twice per week and the tumour volumes were calculated according to the formula: volume (mm^3)=length (mm)×width^2 […]/2 [formula]
with V0 and Vt being the initial volume and the volume at measurement time t, respectively.

| SMILES | % T/C [1] | Anti-tumour activity on line P 388 (in words) [1] | IC50 [2] | Anti-tumour activity on line HT29 (in words) ([3]; HT29 model in nude mice, i.v.) | % T/C on day 32 ([3]; HT29 s.c. grafts in nude Swiss mice, i.v. d 0, 7, 14 at optimum dose, tumour volume) | inhibition of growth of the HT29 tumour ([3]; on day 32, HT29 s.c. grafts in nude mice, i.v. once per week for 3 weeks) |
| --- | --- | --- | --- | --- | --- | --- |
| COc1cc2c(c3c1c(=O)c1cc4ccccc4cc1n3C)[C@H]1OC(=O)O[C@H]1C(C)(C)O2 (relative stereo) [Example 7, cis-7-Methoxy-4,4,15-trimethyl-3a,8,15,15c-tetrahydro-4H-benzo[b][1,3]dioxolo[4',5':4,5]pyrano[3,2-h]acridine-2,8-dione] | 327% | very active | 0.023 µM | – | – | – |
| COc1cc2c(c3c1c(=O)c1ccccc1n3C)C=CC(C)(C)O2 [Acronycine] | 125% | only marginally active | 27 µM | – | – | – |
| COc1cc2c(c3c1c(=O)c1cc4ccccc4cc1n3C)[C@@H](OC(C)=O)[C@@H](OC(C)=O)C(C)(C)O2 (relative stereo) [Example 5, (±)-cis-1,2-Diacetoxy-4-methoxy-3,3,14-trimethyl-2,3,7,14-tetrahydro-1H-benzo[b]pyrano[3,2-h]acridin-7-one] | – | – | – | very active | 17% | 83% |
